The text below walks through data of publication PMC9895995, “Laccase Immobilization on Copper-Magnetic Nanoparticles for Efficient Bisphenol Degradation” (Journal of Microbiology and Biotechnology, 2022).

This assay deals with T1, Rhus vernicifera laccase (free laccase).
T1 construct: gene urishiol oxidase
The conditions noted are these: free enzyme; 100 mM sodium citrate buffer, optimum pH (3.5), 25°C; ABTS 0.05-20.0 mM.

Structures are written as SMILES.

Usually Km stands for the concentration of substrate that gives half-maximal velocity. Take `CCn1c(=NN=c2sc3cc(S(=O)(=O)O)ccc3n2CC)sc2cc(S(=O)(=O)O)ccc21` [ABTS, 2,2'-azino-bis (3-ethylbenzothiazoline-6-sulfonic acid)]: the Km is 1720 ± 380 µM.
